A word on the EC50: it is the concentration at which the effect is half-maximal.

In one assay the test system is Panc3.27 tumor cells. Kind of assay: Cellular assay: Panc3.27 tumor cell proliferation (Cell Titer Glo). The assay is classed as cell-based. To be noted: Panc3.27 cells, 4000 cells per well, 72 hour growth, CTG readout, percent control growth; read-out: PANC proliferation IC50. As for the experimental part: (§1) The compounds described herein above were profiled using a cellular assay (using Panc3.27 tumor cells) and a binding assay to determine the competition between the compounds of the present invention and smac7mer peptide for XIAP-BIR3 and cIAP1-BIR3 binding groove occupancy.
Cellular Assay—Treatment of Panc3.27 Tumor Cells with Dimeric IAP Antagonists
On day one adherent Panc3.27 cells are plated into two 96-well, clear, flat bottom plates. All wells in row A contain 90 uL of media. All wells in rows B-G contain a total volume of 90 uL per well and 4000 cells per well for Panc3.27 cell lines. Plates are then incubated overnight for 18 hours at 37° C., 5% CO2.
On day two cells are treated with the compounds of formula M-L-M′. Treatments are done in triplicate. The compounds are first serially diluted in DMSO and then added to media giving a final concentration of 0.2% DMSO when added to cells. Cells are treated with 10 uL of serially diluted compounds of formula M-L-M′ at a final concentration of 1000 nM, 200 nM, 40 nM, 8 nM, 1.6 nM, 0.32 nM, 0.06 nM, 0.013 nM, 0.0026 nM, and one untreated well. Plate two is used as a time zero plate.
To measure cell viability 50 uL of Cell Titer Glo (CTG) solution is added to row A, media only and B, cells and media. CTG is purchased from Promega Corporation catalog number G7573. The solution is prepared according to manufacturer's instructions. CTG measures the amount of ATP released from viable cells that is proportional to the number of cells in each well. After incubating for ten minutes with CTG plates are measured on a luminescent reader at 700 nm wavelength. Read time is approximately one second per well for a 96-well plate.
On day five 50 uL of CTG is added to plate one, rows A-G, incubated for 10 minutes at room temperature and read on a luminescent reader. Raw data is adjusted to account for the time zero plate as well as background noise. Triplicate values are averaged and percent control growth is calculated. Percent control growth is calculated using the following logical test: If well read data point (a) is greater than time zero data point (t=0), then 100*[(a)−(t=0)]/[(72 hour total growth)−(t=0)], OR 100*[(a)−(t=0)]/[(t=0)]. Data is represented by line graph with the concentration of compound on the x axis and percent control growth on the y axis.
On the technique in general: Cellular ATP, detected with luciferase, serves as a proxy for viable cell number.

Another assay addresses XIAP-BIR3 (Homo sapiens, UniProt P98170). Kind of assay: Biacore SPR solution competition binding assay vs smac7mer peptide, XIAP-BIR3. To be noted: SPR competition with captured smac7mer peptide; 100 nM XIAP-BIR3; 25° C.; read-out: XIAP-BIR3 Binding Biacore (Competitive) EC50.
Excerpt: as §1
(§2) The present method includes utility of a Surface plasmon resonance (SPR)-based biosensor (Biacore™, GE Healthcare, Uppsala, Sweden) to examine competition between the compounds of the present invention and smac7mer peptide for XIAP-BIR3 and cIAP1-BIR3 binding groove occupancy.
(§3) Biacore™ utilizes the phenomenon of surface plasmon resonance (SPR) to detect and measure binding interactions. In a typical Biacore experiment, one of the interacting molecules is immobilized on a flexible dextran matrix while the interacting partner is flowed over the derivatized surface. A binding interaction results in an increase in mass on the sensor surface and a corresponding direct change in the refractive index of the medium in the vicinity of the sensor surface. Changes in refractive index or signal are recorded in resonance units (R.U.) Signal changes due to association and dissociation of complexes are monitored in a non-invasive manner, continuously and in real-time, the results of which are reported in the form of a sensorgram.
(§4) Biacore™ T100 (GE Healthcare, Uppsala, Sweden) was used to conduct all experiments reported herein. Sensor surface preparation and interaction analyses were performed at 25° C. Buffer and Biacore reagents were purchased from GE Healthcare. Running buffer containing 10 mM Hepes, pH7.4, 150 mM sodium chloride, 1.25 mM Dithiothreitol, 2% Dimethyl sulfoxide and 0.05% polysorbate 20 was utilized throughout all experiments.
(§5) Biotinylated smac7mer peptide was diluted to 10 nM in running buffer and captured onto a sensor surface pre-derivatized with streptavidin (sensor chip SA) towards peptide surface densities in the range 40-100 R.U. Peptide captured surfaces were blocked with 500 μM PEO2-Biotin (Thermo Scientific).
(§6) Interaction analyses were performed by first equilibrating each compound within a six point seven fold compound dilution series in the range 1 μM to 0.06 nM with either 100 nM XIAP-BIR3 or 6 nM cIAP1-BIR3 for at least one hour during instrument start-up procedures. Protein compound mixtures were then injected over reference and smac7mer peptide surfaces in series for 60 seconds at a flow-rate of 60 μL/min. Surface regeneration was performed at the end of each analysis cycle by a 30 second injection of 10 mM Glycine, pH 2.5, 1M Sodium Chloride, 0.05% polysorbate 20. Additionally, control compound samples and control XIAP-BIR3 or cIAP1-BIR3 samples were prepared and run at regular intervals to monitor surface and assay performance.
(§7) Data analyses were carried out using Biacore™ T100 evaluation software v2.0 to validate assay quality. Binding level report points were plotted versus logarithmic compound concentration values and analyzed in Graphpad prism 5 via non-linear regression using a one-site competition model. EC50 values were generated and used as a measure of inhibitor potency.
Background: SPR reads the build-up and loss of mass on a sensor chip optically.

Another assay has as its target cIAP1-BIR3 (Homo sapiens, UniProt Q13490). Kind of assay: Biacore SPR solution competition binding assay vs smac7mer peptide, cIAP1-BIR3. To be noted: SPR competition with captured smac7mer peptide; 6 nM cIAP1-BIR3; 25° C.; read-out: CIAP-BIR3 Binding Biacore (Competitive) EC50.
Excerpt: as §1, §2, §3, §4, §5, §6, §7

Structures can show the parent of a compound that is named as a salt.

cIAP1-BIR3, sequence (Q13490 253-363 limits assumed): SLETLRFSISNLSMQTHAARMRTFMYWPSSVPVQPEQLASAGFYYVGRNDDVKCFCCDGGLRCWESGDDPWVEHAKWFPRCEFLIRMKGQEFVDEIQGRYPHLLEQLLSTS
XIAP-BIR3, sequence (P98170 241-356 limits assumed): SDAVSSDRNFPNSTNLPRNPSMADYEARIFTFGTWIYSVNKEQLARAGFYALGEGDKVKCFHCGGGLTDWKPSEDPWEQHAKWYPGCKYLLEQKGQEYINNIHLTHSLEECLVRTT

Regarding `CN[C@@H](C)C(=O)N[C@H](C(=O)N1CCC[C@H]1c1cncc(-c2ccc(F)c(C(=O)NNC(=O)c3cc(-c4cncc([C@@H]5CCCN5C(=O)[C@@H](NC(=O)[C@H](C)NC)C5CCCCC5)c4)ccc3F)c2)c1)C1CCCCC1` [Example 2N-2], in the assay with Panc3.27 tumor cells, the IC50 lay in the range of 0.0026 to 0.02 nM. Besides, the EC50 lay within 75.2 to 75.5 nM at XIAP-BIR3 and 1.27 to 1.36 nM on cIAP1-BIR3.
On the same counts, the results for `CN[C@@H](C)C(=O)N[C@H](C(=O)N1CCC[C@H]1c1cncc(-c2ccc(F)cc2CNC(=O)c2ccc(-c3ccc(C(=O)NCc4cc(F)ccc4-c4cncc([C@@H]5CCCN5C(=O)[C@@H](NC(=O)[C@H](C)NC)C5CCCCC5)c4)cc3)cc2)c1)C1CCCCC1` [Example 3A, N4,N4′-bis(2-(5-((S)-1-(S)-2-cyclohexyl-2-((S)-2-(methylamino)-propanamido)acetyl)pyrrolidin-2-yl)pyridin-3-yl)-5-fluorobenzyl)biphenyl-4,4′-dicarboxamide, trifluoroacetate] are 0.0026 to 0.0084 nM, 126 to 127 nM and 0.86 to 0.88 nM.

The values above are taken from patent US20130266590A1, “DIMERIC IAP INHIBITORS” (NOVARTIS AG, priority 2010, published 2013).
